28 molecules from patent US8153795B2, “Substituted 1-oxa-3,8-diazaspiro[4.5]-decan-2-one-compounds and the use thereof for producing drugs” (Gruenenthal GmbH, priority 2005, dated 2012) can be followed below.

For the assay, the target named is T1, 5-HT transporter (Rattus norvegicus, UniProt P31652).
T1 construct: from tissue; host or cells: rat brain synaptosomes (P2 fraction) from medulla and pons
T1 sequence (P31652 whole entry): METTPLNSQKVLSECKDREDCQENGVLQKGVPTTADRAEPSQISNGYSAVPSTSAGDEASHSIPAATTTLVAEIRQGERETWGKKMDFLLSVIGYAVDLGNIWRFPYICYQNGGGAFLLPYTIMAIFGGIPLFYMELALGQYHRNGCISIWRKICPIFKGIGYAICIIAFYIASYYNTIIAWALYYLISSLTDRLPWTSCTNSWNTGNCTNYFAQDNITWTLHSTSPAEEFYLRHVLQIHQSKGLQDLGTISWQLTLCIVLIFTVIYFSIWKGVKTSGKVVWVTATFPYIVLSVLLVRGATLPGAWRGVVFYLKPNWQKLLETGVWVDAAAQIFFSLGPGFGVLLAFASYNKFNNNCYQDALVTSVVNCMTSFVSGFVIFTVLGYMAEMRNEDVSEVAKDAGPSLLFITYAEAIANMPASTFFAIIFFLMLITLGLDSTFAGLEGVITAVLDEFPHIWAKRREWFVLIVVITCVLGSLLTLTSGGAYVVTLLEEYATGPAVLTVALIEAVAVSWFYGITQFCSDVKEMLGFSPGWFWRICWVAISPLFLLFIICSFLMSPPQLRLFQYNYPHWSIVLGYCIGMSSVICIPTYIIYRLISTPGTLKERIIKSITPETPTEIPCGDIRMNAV
As to the kind of experiment: 5-HT uptake inhibition in rat brain synaptosomes (medulla and pons), [3H]-5-HT. The class given is biochemical. The text has this:
a) Method for Determining Noradrenalin and 5-HT Uptake Inhibition:
Synaptosomes from rat brain regions are freshly isolated for in vitro studies, as described in the publication “The isolation of nerve endings from brain” by E. G. Gray and V. P. Whittaker, J. Anatomy 96, pages 79-88, 1962. The corresponding literature description is hereby introduced as a reference and is deemed to be part of the disclosure.
The tissue (hypothalamus for the determination of noradrenalin uptake inhibition and medulla and pons for the determination of 5-HT uptake inhibition) is homogenised in ice-cooled 0.32 M sucrose (100 mg of tissue/1 mL) in a glass homogeniser with Teflon pestle using five complete up and down strokes at 840 revolutions/minute.
The homogenate is centrifuged at 4° C. for 10 minutes at 1000 g. After subsequent centrifugation at 17000 g for 55 minutes, the synaptosomes (P2 fraction) are obtained, which are resuspended in 0.32 M […] (0.5 mL/100 mg of original weight).
The particular uptake is measured in a 96-well microtitre plate. The volume is 250 μl and the incubation proceeds at room temperature (approx. 20-25° C.) under an O2 atmosphere.
The incubation time is 7.5 minutes for [^3H]-NA and 5 minutes for [^3H]-5-HT. The 96 samples are then filtered through a Unifilter GF/B® microtitre plate (Packard) and washed with 200 mL of incubated buffer using a “Brabdel MPXRI-96T Cell-Harvester”. The Unifilter GF/B plate is dried for 1 hour at 55° C. The plate is then sealed with a Back Seal® (Packard) and 35 μl of scintillation fluid are added per well (Ultima Gold®, Packard). After sealing with a top Seal® (Packard) and establishing an equilibrium (around 5 hours), radioactivity is determined in a “Trilux 1450 Microbeta” (Wallac).
The quantity of protein used in the above determination corresponds to the values known from the literature, as for example described in “Protein measurement with the folin phenol reagent”, Lowry et al., J. Biol. Chem., 193, 265-275, 1951.
A detailed description of the method may additionally be found in the literature, for example in M. Ch. Frink, H.-H. Hennies, W. Engelberger, M. Haurand and B. Wilffert (1996) Arzneim.-Forsch./Drug Res. 46 (III), 11, 1029-1036.
Consider `COc1ccc(OC)c(NC(=O)N2CCC3(CC2)CN(Cc2ccc4ccccc4c2)C(=O)O3)c1` [Example 55, 3-naphthalen-2-ylmethyl-2-oxo-1-oxa-3,8-diazaspiro[4.5]decane-8-carboxylic acid (2,5-dimethoxyphenyl)amide], for which the inhibition at 10 µM was 61%.
Molecule `CC(=O)c1cccc(NC(=O)N2CCC3(CC2)CN(Cc2ccc(C#N)cc2)C(=O)O3)c1` [Example 56, 3-(4-cyanobenzyl)-2-oxo-1-oxa-3,8-diazaspiro[4.5]decane-8-carboxylic acid (3-acetylphenyl)amide] displayed an inhibition at 10 µM of 60%.
For `COc1ccc(Cl)cc1NC(=O)N1CCC2(CC1)CN(Cc1ccc(C#N)cc1)C(=O)O2` [Example 58, 3-(4-cyanobenzyl)-2-oxo-1-oxa-3,8-diazaspiro[4.5]decane-8-carboxylic acid (5-chloro-2-methoxyphenyl)amide] the value was 49%.
For `CCOC(=O)c1cccc(NC(=O)N2CCC3(CC2)CN(Cc2ccccc2C(F)(F)F)C(=O)O3)c1` [Example 59, 3-{[2-oxo-3-(2-trifluoromethylbenzyl)-1-oxa-3,8-diazaspiro[4.5]decane-8-carbonyl]amino}benzoic acid ethyl ester] the value was 47%.
For `CC(C)(C)OC(=O)NC(Cc1c[nH]c2ccccc12)C(=O)N1CCC2(CC1)CN(Cc1cccc(Br)c1)C(=O)O2` (stereo not shown) [Example 66, [2-[3-(3-bromobenzyl)-2-oxo-1-oxa-3,8-diazaspiro[4.5]dec-8-yl]-1-(1H-indol-3-ylmethyl)-2-oxoethyl]carbamic acid tert-butyl ester] the value was 53%; for `N#Cc1ccccc1CN1CC2(CCN(C(=O)CC3(CC(=O)O)CCCC3)CC2)OC1=O` [Example 71, (1-{2-[3-(2-cyanobenzyl)-2-oxo-1-oxa-3,8-diazaspiro[4.5]dec-8-yl]-2-oxoethyl}cyclopentyl)acetic acid], 62%.
For the molecule `O=C(O)CC1(CC(=O)N2CCC3(CC2)CN(Cc2ccc(F)c(F)c2)C(=O)O3)CCCC1` [Example 72, (1-{2-[3-(3,4-difluorobenzyl)-2-oxo-1-oxa-3,8-diazaspiro[4.5]dec-8-yl]-2-oxoethyl}cyclopentyl)acetic acid], the inhibition at 10 µM came to 45%.
The molecule `CC(CC(=O)O)CC(=O)N1CCC2(CC1)CN(Cc1ccccc1-c1ccccc1)C(=O)O2` (stereo not shown) [Example 73, 5-(3-biphenyl-2-ylmethyl-2-oxo-1-oxa-3,8-diazaspiro[4.5]dec-8-yl)-3-methyl-5-oxopentanoic acid] came in with an inhibition at 10 µM of 57%.
Consider `COc1ccc([N+](=O)[O-])cc1CN1CC2(CCN(CC(=O)Nc3cc(C)nn3C)CC2)OC1=O` [Example 76, N-(2,5-dimethyl-2H-pyrazol-3-yl)-2-[3-(2-methoxy-5-nitrobenzyl)-2-oxo-1-oxa-3,8-diazaspiro[4.5]dec-8-yl]acetamide], for which the inhibition at 10 µM turned out to be 51%.
Next, `O=C1OC2(CCN(Cc3ccc(OC(F)(F)F)cc3)CC2)CN1Cc1ccc(F)c(F)c1` [Example 81, 3-(3,4-difluorobenzyl)-8-(4-trifluoromethoxybenzyl)-1-oxa-3,8-diazaspiro[4.5]decan-2-one]: 75%; `N#Cc1ccccc1CN1CC2(CCN(Cc3ccc(Cl)cc3)CC2)OC1=O` [Example 82, 2-[8-(4-chlorobenzyl)-2-oxo-1-oxa-3,8-diazaspiro[4.5]dec-3-ylmethyl]benzonitrile]: 56%.
Next, `Cc1ccc2ccccc2c1CN1CCC2(CC1)CN(Cc1ccccc1C(F)(F)F)C(=O)O2` [Example 83, 8-(2-methylnaphthalen-1-ylmethyl)-3-(2-trifluoromethylbenzyl)-1-oxa-3,8-diazaspiro[4.5]decan-2-one]: 41%.
`N#Cc1ccccc1CN1CC2(CCN(Cc3csc4ccc(Cl)cc34)CC2)OC1=O` [Example 84, 2-[8-(5-chlorobenzo[b]thiophen-3-ylmethyl)-2-oxo-1-oxa-3,8-diazaspiro[4.5]dec-3-ylmethyl]benzonitrile] showed an inhibition at 10 µM of 62%.
Next, `O=C(CN1CCC2(CC1)CN(Cc1ccc(SC(F)(F)F)cc1)C(=O)O2)Nc1csc(C(F)(F)F)c1-c1ccccc1` [Example 85, 2-[2-oxo-3-(4-trifluoromethylsulfanylbenzyl)-1-oxa-3,8-diazaspiro[4.5]dec-8-yl]-N-(4-phenyl-5-trifluoromethylthiophen-3-yl)acetamide]: 90%.
Consider `COc1ccc([N+](=O)[O-])cc1CN1CC2(CCN(Cc3cccc([N+](=O)[O-])c3)CC2)OC1=O` [Example 88, 3-(2-methoxy-5-nitrobenzyl)-8-(3-nitrobenzyl)-1-oxa-3,8-diazaspiro[4.5]decan-2-one], for which testing at 10 µM gave an inhibition of 70%.
For `Cc1ccc(CN2CC3(CCN(Cc4ccc5ccccc5c4Br)CC3)OC2=O)cc1` [Example 90, 8-(1-bromonaphthalen-2-ylmethyl)-3-(4-methylbenzyl)-1-oxa-3,8-diazaspiro[4.5]decan-2-one] the value was 77%; for `CC(=O)Nc1ccc(C(=O)N2CCC3(CC2)CN(Cc2cccc(C#N)c2)C(=O)O3)cc1` [Example 91, N-{4-[3-(3-cyanobenzyl)-2-oxo-1-oxa-3,8-diazaspiro[4.5]decane-8-carbonyl]phenyl}acetamide], 68%; for `CCSc1ncccc1C(=O)N1CCC2(CC1)CN(Cc1cc(C)cc(C)c1)C(=O)O2` [Example 99, 3-(3,5-dimethylbenzyl)-8-(2-ethylsulfanylpyridine-3-carbonyl)-1-oxa-3,8-diazaspiro[4.5]decan-2-one], 73%.
In turn, `Cc1cc(C)cc(CN2CC3(CCN(C(=O)c4c(-c5ccccc5Cl)noc4C)CC3)OC2=O)c1` [Example 101, 8-[3-(2-chlorophenyl)-5-methylisoxazole-4-carbonyl]-3-(3,5-dimethylbenzyl)-1-oxa-3,8-diazaspiro[4.5]decan-2-one] gave an inhibition at 10 µM of 84%.
Turning to `CCc1ccc(CS(=O)(=O)N2CCC3(CC2)CN(Cc2cccc(Br)c2)C(=O)O3)cc1` [Example 102, 3-(3-bromobenzyl)-8-(4-ethylbenzylsulfonyl)-1-oxa-3,8-diazaspiro[4.5]decan-2-one], the inhibition at 10 µM amounted to 67%.
For `CCCCOc1ccc(CS(=O)(=O)N2CCC3(CC2)CN(Cc2cc(C)cc(C)c2)C(=O)O3)cc1` [Example 103, 8-(4-butoxybenzylsulfonyl)-3-(3,5-dimethylbenzyl)-1-oxa-3,8-diazaspiro[4.5]decan-2-one] the value was 83%; for `CC(=O)OC(C(=O)N1CCC2(CC1)CN(Cc1cc(C)cc(C)c1)C(=O)O2)c1ccccc1` (stereo not shown) [Example 105, acetic acid 2-[3-(3,5-dimethylbenzyl)-2-oxo-1-oxa-3,8-diazaspiro[4.5]dec-8-yl]-2-oxo-1-phenylethyl ester], 74%.
For `N#Cc1ccc(CN2CC3(CCN(C(=O)C4CC4c4ccccc4)CC3)OC2=O)cc1` (stereo not shown) [Example 106, 4-[2-oxo-8-(2-phenylcyclopropanecarbonyl)-1-oxa-3,8-diazaspiro[4.5]dec-3-ylmethyl]benzonitrile] the value was 63%; for `COc1ccc(OC)c(CS(=O)(=O)N2CCC3(CC2)CN(Cc2cc(C)cc(C)c2)C(=O)O3)c1` [Example 107, 8-(2,5-dimethoxybenzylsulfonyl)-3-(3,5-dimethylbenzyl)-1-oxa-3,8-diazaspiro[4.5]decan-2-one], 76%; for `Cc1cc(C)cc(CN2CC3(CCN(C(=O)c4ccccc4Cl)CC3)OC2=O)c1` [Example 108, 8-(2-chlorobenzoyl)-3-(3,5-dimethylbenzyl)-1-oxa-3,8-diazaspiro[4.5]decan-2-one], 77%.
For `Cc1ccc(CS(=O)(=O)NC(Cc2ccccc2)C(=O)N2CCC3(CC2)CN(Cc2cccc(C#N)c2)C(=O)O3)cc1` (stereo not shown) [Example 110, N-{1-benzyl-2-[3-(3-cyanobenzyl)-2-oxo-1-oxa-3,8-diazaspiro[4.5]dec-8-yl]-2-oxoethyl}-4-methylbenzylsulfonamide] the value was 64%; for `CCSc1ncccc1C(=O)N1CCC2(CC1)CN(Cc1cccc(OC)c1)C(=O)O2` [Example 111, 8-(2-ethylsulfanylpyridine-3-carbonyl)-3-(3-methoxybenzyl)-1-oxa-3,8-diazaspiro[4.5]decan-2-one], 71%; for `COc1cccc(CN2CC3(CCN(C(=O)c4ccc(OC)cc4OC)CC3)OC2=O)c1` [Example 112, 8-(2,4-dimethoxybenzoyl)-3-(3-methoxybenzyl)-1-oxa-3,8-diazaspiro[4.5]decan-2-one], 66%.
